Experimental data from patent publication US10138229B2, “Heteroaromatic compounds as BTK inhibitors” (Boehringer Ingelheim International GmbH, priority 2012, dated 2018).

Key:
[1] = molecular target: full-length human His-tagged BTK (Homo sapiens (Human), UniProt Q06187); assay: BTK Assay (HTRF, Cisbio KinEASE-TK); format: biochemical; conditions: 6 nM BTK, 30 uM ATP, 15 min preincubation
Experimental: An HTRF assay (Cisbio KinEASE-TK cat #62TKOPEC) was performed to quantitate the ability of test compounds to inhibit BTK mediated phosphorylation of substrate. Assays were assembled in 384 well plates where 6 nM of full-length human His-tagged BTK (Life Technologies cat # PV3587) and test compound at varying concentrations were preincubated for 15 minutes at 28° C. Then, 1 uM of TK substrate-biotin and 30 uM ATP were added and incubated for an additional 30 minutes at 28° C.

[2] = molecular target: BTK (Homo sapiens (Human), UniProt Q06187); assay: Inhibition of B-cell activation measured by CD69 expression in primary CD19+ cells; format: cell-based; conditions: primary CD19+ cells stimulated with anti-human IgD, CD69 expression by flow cytometry
BTK, sequence (Q06187 whole entry): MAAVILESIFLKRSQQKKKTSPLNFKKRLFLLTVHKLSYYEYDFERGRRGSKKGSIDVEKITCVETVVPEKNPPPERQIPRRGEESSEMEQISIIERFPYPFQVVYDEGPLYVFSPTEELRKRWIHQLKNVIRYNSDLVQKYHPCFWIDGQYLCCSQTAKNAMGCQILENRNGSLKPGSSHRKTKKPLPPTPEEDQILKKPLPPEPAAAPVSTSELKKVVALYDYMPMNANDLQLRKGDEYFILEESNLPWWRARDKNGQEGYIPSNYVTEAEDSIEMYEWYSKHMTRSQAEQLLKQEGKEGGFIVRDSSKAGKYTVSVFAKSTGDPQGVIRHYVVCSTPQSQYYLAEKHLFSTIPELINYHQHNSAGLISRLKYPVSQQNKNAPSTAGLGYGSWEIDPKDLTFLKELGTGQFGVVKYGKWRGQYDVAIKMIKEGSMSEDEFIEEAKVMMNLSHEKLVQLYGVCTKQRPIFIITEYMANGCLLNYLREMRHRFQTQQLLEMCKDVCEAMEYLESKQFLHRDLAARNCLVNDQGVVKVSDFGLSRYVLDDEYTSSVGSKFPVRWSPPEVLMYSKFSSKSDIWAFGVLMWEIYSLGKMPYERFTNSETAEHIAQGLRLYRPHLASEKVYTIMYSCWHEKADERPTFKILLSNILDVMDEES
Experimental: Cells were collected and plated in a 96 flat bottom plate at a concentration of 2×10^5/well in RPMI media containing 10% FBS, rested for 1 hour at 37° c. Cells were treated with inhibitor in duplicates or vehicle control in 1% DMSO final concentration for 1 hour at 37° c., 5% CO2. […] B cells were analyzed by flow cytometry using a BD LSRII or BD FACsCanto Flow Cytometer. Viable cells were gated, and CD69 percentage was determined using FlowJo software.

[3] = molecular target: EGFR (Homo sapiens (Human), UniProt P00533); assay: Inhibition of EGFR autophosphorylation in A431 human epithelial cells stimulated with EGF; format: cell-based; conditions: EGF 60 ng/mL, phospho EGFR, read-out: A431 p-EGFR IC50
EGFR, sequence (P00533 25-1210): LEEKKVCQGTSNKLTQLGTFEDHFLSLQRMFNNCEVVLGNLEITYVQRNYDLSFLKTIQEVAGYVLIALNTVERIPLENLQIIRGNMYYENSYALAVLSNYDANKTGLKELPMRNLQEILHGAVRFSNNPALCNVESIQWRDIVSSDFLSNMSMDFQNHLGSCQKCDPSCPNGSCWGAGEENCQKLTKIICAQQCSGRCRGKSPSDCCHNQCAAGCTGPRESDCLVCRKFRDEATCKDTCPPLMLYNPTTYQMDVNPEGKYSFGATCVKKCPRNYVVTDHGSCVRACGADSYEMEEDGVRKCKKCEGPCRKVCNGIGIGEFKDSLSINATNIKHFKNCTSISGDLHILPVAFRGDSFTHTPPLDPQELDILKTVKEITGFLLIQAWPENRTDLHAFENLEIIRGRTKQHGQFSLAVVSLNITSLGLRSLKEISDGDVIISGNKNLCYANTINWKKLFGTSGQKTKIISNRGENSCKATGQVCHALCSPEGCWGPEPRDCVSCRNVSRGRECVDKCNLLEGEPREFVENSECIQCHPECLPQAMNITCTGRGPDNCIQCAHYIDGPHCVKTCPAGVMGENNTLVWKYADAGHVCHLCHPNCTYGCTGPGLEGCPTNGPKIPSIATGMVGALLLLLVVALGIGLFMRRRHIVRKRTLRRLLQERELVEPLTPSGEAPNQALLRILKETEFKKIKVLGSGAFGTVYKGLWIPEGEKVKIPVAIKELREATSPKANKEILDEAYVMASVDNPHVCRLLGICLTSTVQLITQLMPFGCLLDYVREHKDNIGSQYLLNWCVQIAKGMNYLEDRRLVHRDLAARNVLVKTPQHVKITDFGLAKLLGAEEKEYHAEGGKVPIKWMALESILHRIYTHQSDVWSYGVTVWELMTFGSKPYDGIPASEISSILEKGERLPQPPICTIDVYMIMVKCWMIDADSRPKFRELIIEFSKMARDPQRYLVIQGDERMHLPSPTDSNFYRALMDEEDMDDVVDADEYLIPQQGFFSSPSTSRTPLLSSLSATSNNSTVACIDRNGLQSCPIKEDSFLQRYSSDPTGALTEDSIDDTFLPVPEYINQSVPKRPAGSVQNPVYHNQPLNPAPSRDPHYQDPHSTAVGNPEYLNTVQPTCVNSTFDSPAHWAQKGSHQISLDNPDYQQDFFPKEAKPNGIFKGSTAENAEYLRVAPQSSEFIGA
Source text: The compounds described herein show a range of selectivities against EGFR as measured in cellular assays (BTK activity measured by CD69 expression in primary CD19^+ cells; EGFR activity measured by EGFR phosphorylation in A431 cells).
Inhibition of EGFR Autophosphorylation in A431 Human Epithelial Cells Stimulated with Epithelial Growth Factor
A431 cells (ATCC # CRL-1555 FZ) are thawed and plated in DMEM containing 10% FBS in a 384-well tissue culture treated plate at 15,000 cells/well. After incubating for 24 hours at 37° C., 5% CO2, the cells are treated with test compound (1% DMSO final concentration) and incubated for 16 hours at 37° C., 5% CO2. EGF (Millipore, 01-107) is added at a final concentration of 60 ng/mL and incubated for 10 minutes. The medium is removed, the cells are lysed, and phospho EGFR is measured (Meso Scale Diagnostics, N31CB-1).

full-length human His-tagged BTK, sequence (Q06187 whole entry): as the sequence (Q06187 whole entry) above

| Structure (SMILES) | IC50 [1] | IC50 [2] | IC50 [3] |
| --- | --- | --- | --- |
| CC#CC(=O)N1CC[C@]2(C1)C[C@H](n1nc(-c3ccc(OCCC)c(F)c3)c(C(N)=O)c1N)C2 [Example 161] | 1.1 nM | 2.1 nM | 400 nM |
| C=CC(=O)N1CC[C@]2(C1)C[C@H](n1nc(-c3ccc(OCC(F)(F)F)cc3)c(C(N)=O)c1N)C2 [Example 163] | 4.8 nM | 15 nM | 5200 nM |
| C=CC(=O)N1CC[C@]2(C1)C[C@@H](n1nc(-c3ccc(Oc4ccccc4)cc3)c(C(N)=O)c1N)C2 [Example 81] | 0.79 nM | 0.9 nM | 790 nM |
| C=CC(=O)N1CC2(CC(n3nc(-c4ccc(OC5CC5)cc4)c(C(N)=O)c3N)C2)C1 [Example 112] | 6.7 nM | 41 nM | 5800 nM |
| CC#CC(=O)N1CC[C@]2(C1)C[C@@H](c1nc(-c3ccc(Oc4ccccc4)cc3)c(C(N)=O)s1)C2 [Example 78] | 2.1 nM | 2.5 nM | 1800 nM |
| CC#CC(=O)N1CC[C@]2(C1)C[C@H](n1nc(-c3ccc(OCC(F)(F)F)cc3)c(C(N)=O)c1N)C2 [Example 164] | 0.5 nM | 1.5 nM | 420 nM |
| CC#CC(=O)N1CC2(CC(n3nc(-c4ccc(OC(C)C)cc4)c(C(N)=O)c3N)C2)C1 [Example 106] | 13 nM | 30 nM | > 10000 nM |
| CC#CC(=O)N1CC2(CC(n3nc(-c4ccc(OCC(F)(F)F)cc4)c(C(N)=O)c3N)C2)C1 [Example 115] | 3.5 nM | 7.8 nM | 6400 nM |
| C=CC(=O)N1CC[C@]2(C1)C[C@H](n1cc(C(N)=O)c(-c3ccc(Oc4ccccc4)cc3)n1)C2 [Example 40] | 4.9 nM | 20 nM | > 10000 nM |
| CC#CC(=O)N1CC2(CC(n3nc(-c4ccc(Oc5ccccc5)cc4)c(C(N)=O)c3N)C2)C1 [Example 41] | 0.73 nM | 1 nM | 430 nM |
| C=CC(=O)NCCn1cc(C(N)=O)c(-c2ccc(Oc3ccccc3)cc2)n1 [Example 39] | 290 nM |  |  |
| C=CC(=O)N1CC[C@]2(C1)C[C@@H](n1nc(-c3ccc(Oc4ccccc4)nc3)c(C(N)=O)c1N)C2 [Example 123] | 9.1 nM |  |  |
| C=CC(=O)N1CCC[C@@H](n2cc(C(N)=O)c(-c3ccc(Oc4ccc(Cl)c(F)c4)cc3)n2)C1 [Example 66] | 43 nM |  |  |
| C=CC(=O)N1CCC[C@@H](n2cc(C(N)=O)c(-c3ccc(-c4ccccc4)cc3)n2)C1 [Example 1] | 2600 nM |  |  |
| C=CC(=O)N1CCC[C@@H](n2cc(C(N)=O)c(-c3ccc(Oc4ccc(S(C)(=O)=O)cc4)cc3)n2)C1 [Example 64] | 6500 nM |  |  |
| C=CC(=O)N1CC[C@]2(C1)C[C@H](n1nc(-c3ccc(OCCC)c(F)c3)c(C(N)=O)c1N)C2 [Example 165] | 15 nM | 10 nM | 3700 nM |
| NC(=O)c1c(-c2ccc(Oc3ccccc3)cc2)nn([C@H]2C[C@]3(CCN(C(=O)/C=C/CN4CCOCC4)C3)C2)c1N [Example 99] | 3.2 nM |  |  |
| C=CC(=O)N1CC[C@]2(C1)C[C@H](n1nc(-c3ccc(F)c(OCC(F)(F)F)c3)c(C(N)=O)c1N)C2 [Example 146] | 22 nM |  |  |
| C=CC(=O)N1CCC[C@@H](c2nc(-c3ccc(Oc4ccccc4)cc3)c(C(N)=O)[nH]2)C1 [Example 46] | 1.2 nM | 2 nM | 120 nM |
| CC#CC(=O)N1CC[C@]2(C1)C[C@H](n1nc(-c3ccc(OC)cc3Cl)c(C(N)=O)c1N)C2 [Example 158] | 6.3 nM | 58 nM | > 10000 nM |
| C=CC(=O)N1CCC[C@@H](n2cc(C(N)=O)c(-c3ccc(Oc4ccc(F)cc4)cc3)n2)C1 [Example 62] | 93 nM |  |  |
| C=CC(=O)N1CC[C@]2(C1)C[C@H](n1nc(-c3ccc(OC4CC4)cc3)c(C(N)=O)c1N)C2 [Example 156] | 16 nM |  |  |
| C=CC(=O)N1CCC[C@@H](n2cc(C(N)=O)c(-c3cccc(OCc4ccccc4)c3)n2)C1 [Example 3] | 810 nM |  |  |
| C=CC(=O)N1CC2(CC(n3nc(-c4ccc(OCC(F)(F)F)cc4)c(C(N)=O)c3N)C2)C1 [Example 116] | 12 nM |  |  |
| C=CC(=O)N1CCC[C@@H](n2cc(C(N)=O)c(-c3ccc(Oc4cccc(C#N)c4)cc3)n2)C1 [Example 76] | 61 nM |  |  |

| Structure (SMILES) | IC50 [1] | IC50 [2] | IC50 [3] |
| --- | --- | --- | --- |
| C=CC(=O)N1CC2(CC(n3nc(-c4ccc(OC(C)C)cc4)c(C(N)=O)c3N)C2)C1 [Example 105] | 13 nM |  |  |
| CC#CC(=O)N1CC[C@]2(C1)C[C@H](n1nc(-c3ccc(F)c(OCC(F)(F)F)c3)c(C(N)=O)c1N)C2 [Example 137] | 1.6 nM |  |  |
| C=CC(=O)N1CC[C@]2(C1)C[C@@H](n1cc(C(N)=O)c(-c3ccc(Oc4ccccc4)cc3)n1)C2 [Example 88] | 21 nM |  |  |
| C=CC(=O)N1CC[C@]2(C1)C[C@@H](n1nc(-c3ccc(Oc4ccccc4)cn3)c(C(N)=O)c1N)C2 [Example 120] | 3.5 nM |  |  |
| C=CC(=O)N1CC2(CC(n3cc(C(N)=O)c(-c4ccc(Oc5ccccc5)cc4)n3)C2)C1 [Example 28] | 3.5 nM | 9 nM | 4700 nM |
| C=CC(=O)N1CCC[C@@H](n2cc(C(N)=O)c(-c3ccc(NS(=O)(=O)c4cccc(Cl)c4Cl)cc3)n2)C1 [Example 61] | 780 nM |  |  |
| C=CC(=O)N1CC[C@]2(C1)C[C@@H](n1nc(-c3ccc(C(F)(F)F)cc3)c(C(N)=O)c1N)C2 [Example 131] | 28 nM |  |  |
| C=CC(=O)N1CC2(CC(n3nc(-c4ccc(OCCC)cc4)c(C(N)=O)c3N)C2)C1 [Example 111] | 16 nM |  |  |
| CC#CC(=O)N1CC2(CC(n3nc(-c4ccc(Cl)c(C(F)(F)F)c4)c(C(N)=O)c3N)C2)C1 [Example 136] | 14 nM |  |  |
| CC#CC(=O)N1CC[C@]2(C1)C[C@H](n1nc(-c3ccc(Oc4ccccc4)nc3)c(C(N)=O)c1N)C2 [Example 150] | 0.8 nM |  |  |
| C=CC(=O)N1CC2(CC(n3nc(-c4ccc(Oc5ccccc5)cc4)c(C(N)=O)c3N)C2)C1 [Example 35] | 0.77 nM |  |  |
| CC#CC(=O)N1CC[C@]2(C1)C[C@@H](n1nc(-c3ccc(Oc4ccccc4)cn3)c(C(N)=O)c1N)C2 [Example 119] | 11 nM |  |  |
| CC#CC(=O)N1CC[C@]2(C1)C[C@H](n1nc(-c3ccc(OC(F)(F)F)cc3)c(C(N)=O)c1N)C2 [Example 160] | 1.4 nM | 4.5 nM | 1200 nM |
| CC#CC(=O)N1CCC[C@@H](n2cc(C(N)=O)c(-c3ccc(Oc4ccccc4)cc3)n2)C1 [Example 31] | 80 nM |  |  |
| C=CC(=O)N1CCC[C@@H](n2cc(C(N)=O)c(-c3ccc(Oc4ccc(C(F)(F)F)cc4)cc3)n2)C1 [Example 63] | 660 nM |  |  |
| C=CC(=O)N1CCC2(CC1)CC(c1nc(-c3ccc(Oc4ccccc4)cc3)c(C(N)=O)s1)C2 [Example 84] | 52 nM |  |  |
| C=CC(=O)N1CCC[C@@H](n2cc(C(N)=O)c(-c3ccc(Oc4ccc(Cl)cc4)cc3)n2)C1 [Example 70] | 45 nM |  |  |
| CC#CC(=O)N1CC2(CC(n3nc(-c4ccc(OCCC)cc4)c(C(N)=O)c3N)C2)C1 [Example 107] | 3.3 nM | 8.2 nM | 4200 nM |
| CC#CC(=O)N1CCC(Cn2cc(C(N)=O)c(-c3ccc(Oc4ccccc4)cc3)n2)CC1 [Example 49] | 180 nM |  |  |
| C=CC(=O)N1CCC[C@@H](n2nc(-c3ccc(Oc4ccccc4)cc3)c(C(N)=O)c2N)C1 [Example 54] |  |  | 6.6 nM |
| C=CC(=O)N1CC2(CC(n3nc(-c4ccc(Oc5ccccc5)nc4)c(C(N)=O)c3N)C2)C1 [Example 101] | 9.2 nM |  |  |
| CC#CC(=O)N1CCC2(CC1)CC(c1nc(-c3ccc(Oc4ccccc4)cc3)c(C(N)=O)[nH]1)C2 [Example 87] | 4.3 nM |  |  |
| C=CC(=O)N1CCC[C@@H](n2cc(C(N)=O)c(-c3ccc(Oc4ccccc4)c(OC)c3)n2)C1 [Example 22] | 7.6 nM |  |  |
| C=CC(=O)N1CCC[C@@H](n2cc(C(N)=O)c(-c3ccc(NC(=O)c4ccc(C(F)(F)F)cc4F)c(OC)c3)n2)C1 [Example 26] | 22 nM |  |  |
